Our source for the RP-LC retention time values is the METLIN SMRT retention time set (Domingo-Almenara et al. 2019).

A short description of this series: gradient 5% acetonitrile 3 min, to 50% in 2 min, to 85% in 15 min, held 3 min, 100 µL/min. To be noted: column: Zorbax Extend-C18 2.1 x 50 mm; eluents: water / acetonitrile, 0.1% formic acid. Put shortly: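 Over 3 months, pure standards in mixtures of ~100 molecules were run by HPLC coupled to a quadrupole time-of-flight mass spectrometer in positive and negative ionization mode. The column was a Zorbax Extend-C18 (2.1 × 50 mm, 1.8 μm) at 100 μL/min, eluted with water and acetonitrile each holding 0.1% formic acid, with 40 μL dead and 900 μL dwell volumes. Retention time was determined from adduct peaks chosen by software and checked manually.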
Consider `CCc1noc2nc(C)n(CC(=O)NCC(C)c3ccccc3)c(=O)c12` (centres undefined), for which the RP-LC retention time was 835 s.

For `CCCNC(=O)C1CCN(c2ccc(SCC(=O)Nc3ccc(C)c(Cl)c3)nn2)CC1`, the RP-LC retention time stood at 715 s.

`Cn1cc(-c2cc3n(n2)CCC(=O)N3CC(=O)NCCN2CCOCC2)c2ccccc21` came in with an RP-LC retention time of 612 s. For `CCOc1ccc(C(=O)NC(C(=O)Nc2nc3ccccc3[nH]2)C(C)CC)cc1OCC` (centres undefined) the value was 792 s; for `Cc1cccc(S(=O)(=O)N2CCc3nc(-c4ccccc4)ncc3C2)c1`, 1070 s. As for `CCOC(=O)c1cccc(NC(=O)N2CCN(c3nc4ccccc4n3C)CC2)c1`, the figure is 644 s; as for `CC(C)n1c(=O)oc2cc(-c3noc(-c4ccc(Br)cc4)n3)ccc21`, 1350 s. As for `CCc1ccccc1NS(=O)(=O)c1cc(-c2[nH]ncc2C(=O)N2CCCCC2)oc1C`, the figure is 799 s; as for `CCN1CCC2(CC1)CN(Cc1cccc(Cl)c1)Cc1ccccc1O2`, 585 s. `O=C(NC(Cc1ccccc1)c1nnc(N2CCSCC2)o1)C1CCCC1` (centres undefined) showed an RP-LC retention time of 806 s.

Turning to `Cc1ccc(NC(=O)Cn2cnc3nc(N4CCCC(C(=O)NC5CC5)C4)sc3c2=O)c(C)c1` (centres undefined), the RP-LC retention time is 708 s. For `Cc1ccccc1NS(=O)(=O)c1cc(-c2nc(C(C)(C)C)cs2)cs1` the value was 1260 s; for `CSc1ccc(-c2nc3cnccn3c2Nc2ccc(F)cc2)cc1`, 927 s. For `O=C(NCc1c(F)cccc1F)C(=O)NCc1n[nH]c(=O)c2ccccc12` the value was 695 s. As for `COc1ccc2c(c1)C1(CCN(C(=O)Nc3ccccc3C)C1)C(=O)N2` (centres undefined), the figure is 707 s. `Cc1ccc(CN2CC(F)(F)C[C@H]2c2nnc(-c3cnccn3)o2)c(C)c1`: the RP-LC retention time was 990 s. For `Cc1ccc(F)cc1S(=O)(=O)N[C@@H]1CN(c2ncccn2)C[C@H]1CN(C)C` the value was 618 s; for `COc1ccccc1-c1nnc2sc(-c3cc(C)on3)nn12`, 823 s. As for `CCC(=O)N1CCCC1c1nc2ccccc2n1CC(=O)N(c1ccccc1)C(C)C` (centres undefined), the figure is 709 s; as for `Cc1cc(C)c(S(=O)(=O)N2CCC3(CC2)NCCN=C3NCc2ccccc2C)c(C)c1`, 854 s. As for `COc1ccc2c(c1)C1(CCN(C(=O)CC(C)C)C1)C(=O)N2C` (centres undefined), the figure is 722 s. The molecule `Cc1cc(C)cc(Nc2nc(C)cc(=O)n2CC(=O)Nc2cccc(C#N)c2)c1` came in with an RP-LC retention time of 811 s. As for `O=C(Cc1csc(NC(=O)c2cnccn2)n1)Nc1cccc(C(F)(F)F)c1`, the figure is 777 s; as for `COC(=O)c1cc(OCC(=O)Nc2ccccc2Cl)c2cc(OC)ccc2n1`, 915 s; as for `COc1ccccc1NC(=O)N1CCN(c2cnn3c(C)nnc3c2)CC1`, 605 s. Consider `O=C(O)c1cn(Cc2ccccc2)c(=O)c2ccccc12`, for which the RP-LC retention time was determined as 788 s. As for `O=C(NC1CCCCC1)C1CCN(Cc2cc3ccccc3n2Cc2ccc(Cl)cc2)CC1`, the figure is 853 s; as for `Cc1cccc(Cn2c(=O)n(CCNC(=O)C(C)C)c3ncccc32)c1`, 769 s; as for `Cc1nc(-c2cc(S(=O)(=O)NCc3ccc(Br)cc3)c(C)s2)cs1`, 1030 s.

Turning to `CCC1CCCCN1C(=O)CN1CCCN(Cc2cc(C)ccc2C)S1(=O)=O` (centres undefined), the RP-LC retention time was determined as 1150 s.

Molecule `O=C(NC1CCCCCC1)c1ccc2ccnc(N3CCN(c4ccccc4)CC3)c2c1` yielded an RP-LC retention time of 922 s.

With `Cc1sc(-c2cc(C(F)(F)F)on2)cc1S(=O)(=O)NCCc1ccc(Cl)cc1`, the RP-LC retention time turned out to be 1220 s.

The molecule `CCOC(=O)c1cccc(Nc2c(C(=O)N3CCCC(C)C3)cnc3nc(C)ccc23)c1` (centres undefined) gave an RP-LC retention time of 653 s.

On to `Cc1ccc(CC(=O)N2CCc3cc(-c4ccno4)ccc32)cc1`, for which the RP-LC retention time came to 1020 s. Molecule `CCCn1c(=O)c(C)nc2cc(-c3noc(-c4sccc4C)n3)ccc21` registered an RP-LC retention time of 1240 s. For the molecule `COCCCNC(=O)c1ccc(OCc2nnc(C(=O)Nc3ccccc3F)s2)cc1`, the RP-LC retention time amounted to 806 s. For `Cc1ccc(NC(=O)CCC2CCN(c3cc(NC4CC4)ncn3)CC2)c(C)c1` the value was 714 s; for `Fc1cccc(-c2nc(Cn3ccnc3)no2)c1`, 577 s.

The molecule `Cc1cc(SCC(N)=O)nc2ccccc12` yielded an RP-LC retention time of 664 s. For `CCOCCCNC(=O)C1(C)Cn2c(ccc2-c2ccco2)C(=O)N1c1ccc(OC)c(OC)c1` (centres undefined) the value was 752 s. For `Cc1ccc(Cl)cc1NC(=O)N1CCC(N2CCN(Cc3ccccn3)C(=O)C2=O)CC1` the value was 647 s; for `CN(C)c1ccc(-c2nc3ncccn3c2Nc2ccccc2)cc1`, 687 s; for `CC(C)N1CCN(Cc2nc(Cn3ccn4nc(-c5ccccc5)cc4c3=O)no2)CC1`, 647 s.

Molecule `O=C(Nc1ccc(Oc2ccccc2)cc1)c1cccc([N+](=O)[O-])c1C(=O)O` showed an RP-LC retention time of 788 s. As for `O=C1NCCCn2cc(S(=O)(=O)Nc3ccc4c(c3)OCCO4)cc21`, the figure is 622 s.

`COc1ccccc1OCCCn1c(C2CCCO2)nc2ccccc21` (centres undefined) came in with an RP-LC retention time of 602 s.

In turn, `O=c1oc2cc(O)c(O)cc2c2c1CCCC2` gave an RP-LC retention time of 684 s. For `O=C([C@@H]1C[C@H](Oc2cccnc2)CN1C(=O)Cn1c(=O)oc2ccccc21)N1CCCC1` the value was 601 s. Molecule `O=C(c1ccco1)N1CCN(S(=O)(=O)c2cccc(-c3nc(-c4ccccc4)no3)c2)CC1` had an RP-LC retention time of 1060 s.

Molecule `Cc1ccc(S(=O)(=O)N2CCc3nc(-c4ccc(F)cc4)ncc3C2)cc1C` returned an RP-LC retention time of 1170 s. For `COc1ccc(OCc2nnc3sc(-c4ccncc4)nn23)cc1` the value was 710 s; for `COCCN(Cc1ccco1)c1nc(-c2ccc(OC)cc2)nc2ccccc12`, 792 s. As for `O=C(Nc1ccc(-c2cn3cccnc3n2)cc1)c1cc(Br)ccc1Cl`, the figure is 707 s; as for `O=C(NCC1(c2ccc(F)cc2)CC1)c1ccsc1`, 821 s.

With `CC1CCCCN1CCCNC(=O)CC1CCN(C(=O)C2CCCCC2)CC1` (centres undefined), the RP-LC retention time was determined as 605 s. As for `Cc1ncc2c(n1)C[C@@H]1CC[C@H]2N1S(=O)(=O)c1ccc(F)c(C)c1`, the figure is 732 s; as for `COc1ccc(N2CCN(C(=O)c3[nH]c(C)c(S(=O)(=O)N4CCOCC4)c3C)CC2)cc1`, 703 s; as for `O=C(c1cccc2[nH]ccc12)N1CC(Oc2ccc(-c3nc(-c4ccccc4)no3)cc2)C1`, 1100 s. In turn, `CC1CN=C2C=C(N3CCN(C(=O)Nc4ccccc4Cl)CC3)N=CN21` (centres undefined) showed an RP-LC retention time of 618 s.

For the molecule `Cc1cccc(C)c1NC(=O)N1CC(n2cnnc2-c2ccccc2)C1`, the RP-LC retention time is 715 s. For `COc1ccc(-c2coc3cc(OCC(=O)O)ccc3c2=O)cc1` the value was 765 s; for `O=C(c1ccc(Cl)s1)N1CCC(N(C(=O)C2CC2)C2CCOCC2)CC1`, 773 s. For `COc1cccc(-c2nc(-c3ccc(S(=O)(=O)N4CCC(C)CC4)cc3)no2)c1` the value was 1360 s; for `COCc1nc(-c2ccc(OC3CCN(C(=O)C4(c5ccccc5)CC4)C3)cc2)no1` (centres undefined), 932 s; for `CCNC(=O)C1CCN(c2nc3ccc(-c4ccc(F)cc4)nc3s2)CC1`, 861 s. In the case of `COCCNC(=O)c1ccc2c(c1)nc(C)n2-c1ccc(Br)cc1`, the RP-LC retention time turned out to be 666 s. Consider `CCc1noc(-c2cnc3nc(C)ccc3c2NCc2cc(OC)ccc2OC)n1`, for which the RP-LC retention time is 735 s.

`CCc1nc2cc(-c3noc(-c4cccnc4)n3)ccc2o1`: the RP-LC retention time came out at 912 s.

`Cc1ccnc(N2CCC(C(=O)NC3CCCC3)CC2)n1` gave an RP-LC retention time of 628 s. For `COc1ccc(OC)c(-c2cn3ccn(-c4cccc(F)c4)c(=O)c3n2)c1` the value was 835 s; for `Cc1ccc(Cn2nc(C(=O)N3CCCc4cc(C)ccc43)ccc2=O)cc1`, 946 s.

In turn, `CC1CCCN(C(=O)Cc2nnc3cc(-c4nc(C5CC5)no4)ccn23)C1` (centres undefined) came in with an RP-LC retention time of 759 s. As to `Cc1ccc(-c2cc(C(=O)Nc3ccc4c(c3)CCC(=O)N4)c3ccccc3n2)cc1C`, the RP-LC retention time worked out at 949 s. With `CN1C(=O)COc2cc(-c3noc(C(=O)NC4CC4)n3)ccc21`, the RP-LC retention time was 718 s. For `COc1ccccc1-c1nnc(-c2ccc(C)c(S(=O)(=O)N3CCCCCC3)c2)o1` the value was 1100 s; for `CCOc1ccccc1CNC(=O)COc1nc(CC)nc2oc(C)c(C)c12`, 1050 s. As for `Cc1ccc(CNC(=O)N2CCC3(C2)C(=O)N(C)c2ccccc23)cc1` (centres undefined), the figure is 797 s; as for `CCN1CCCn2cc(S(=O)(=O)N(CC)c3ccccc3)cc2C1=O`, 780 s; as for `COc1cccc2cc(C(=O)N3CCN(CCn4cccn4)CC3)oc12`, 571 s.
